Source: ChEMBL document CHEMBL1145577, “IRAK-4 inhibitors. Part III: a series of imidazo[1,2-a]pyridines” (Bioorg Med Chem Lett, 2008)

What was measured:
[1] = biological target: T1, Interleukin-1 receptor-associated kinase 4 (Homo sapiens, UniProt Q9NWZ3); test: Inhibition of IRAK4
T1 sequence (Q9NWZ3 whole entry): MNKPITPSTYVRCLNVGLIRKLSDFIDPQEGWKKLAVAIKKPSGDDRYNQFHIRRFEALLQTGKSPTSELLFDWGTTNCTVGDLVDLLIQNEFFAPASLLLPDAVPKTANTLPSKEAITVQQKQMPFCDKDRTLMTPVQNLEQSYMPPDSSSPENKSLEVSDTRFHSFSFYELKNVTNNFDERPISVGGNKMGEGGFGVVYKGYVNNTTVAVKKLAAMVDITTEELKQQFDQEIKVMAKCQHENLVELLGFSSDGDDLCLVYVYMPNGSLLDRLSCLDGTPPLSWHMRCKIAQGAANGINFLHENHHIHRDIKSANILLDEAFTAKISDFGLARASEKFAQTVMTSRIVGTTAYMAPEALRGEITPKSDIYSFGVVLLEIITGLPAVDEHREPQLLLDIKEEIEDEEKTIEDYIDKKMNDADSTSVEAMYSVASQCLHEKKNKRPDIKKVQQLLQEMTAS

CYP2D6 [2] = biological target: T2, CYP2D6 (Homo sapiens, UniProt P10635); test: Inhibition of CYP2D6 at 10 uM; assay type: ADME
Cytochrome P450 3A4 = Cytochrome P450 3A4 (Homo sapiens, UniProt P08684); test: Inhibition of CYP3A4; assay type: ADME; set-up: concentration or dose not given beside the values
[3] = Intrinsic clearance in human microsomes at 0.5 uM; assay type: ADME, Microsome
PBMC = test: Inhibition of LPS-induced TNFalpha release in human PBMC cells; assay type: functional
[4] = biological target: Interleukin-1 receptor-associated kinase 1 (Homo sapiens, UniProt P51617); test: Inhibition of IRAK1
[5] = biological target: T3, Interleukin-1 receptor-associated kinase 4 (Homo sapiens) (UniProt Q9NWZ3); test: Inhibition of IRAK4 at 10 uM
T3 sequence (whole entry): T1 sequence (Q9NWZ3 whole entry)

Cytochrome P450 2D6 = Cytochrome P450 2D6 (Homo sapiens, UniProt P10635); test: Inhibition of CYP2D6; assay type: ADME
[6] = Intrinsic clearance in rat microsomes at 0.5 uM; assay type: ADME, Microsome
CYP2D6 [7] = biological target: T2, CYP2D6; test: Inhibition of CYP2D6 at 50 uM; assay type: ADME

Cytochrome P450 2D6, sequence (P10635 whole entry): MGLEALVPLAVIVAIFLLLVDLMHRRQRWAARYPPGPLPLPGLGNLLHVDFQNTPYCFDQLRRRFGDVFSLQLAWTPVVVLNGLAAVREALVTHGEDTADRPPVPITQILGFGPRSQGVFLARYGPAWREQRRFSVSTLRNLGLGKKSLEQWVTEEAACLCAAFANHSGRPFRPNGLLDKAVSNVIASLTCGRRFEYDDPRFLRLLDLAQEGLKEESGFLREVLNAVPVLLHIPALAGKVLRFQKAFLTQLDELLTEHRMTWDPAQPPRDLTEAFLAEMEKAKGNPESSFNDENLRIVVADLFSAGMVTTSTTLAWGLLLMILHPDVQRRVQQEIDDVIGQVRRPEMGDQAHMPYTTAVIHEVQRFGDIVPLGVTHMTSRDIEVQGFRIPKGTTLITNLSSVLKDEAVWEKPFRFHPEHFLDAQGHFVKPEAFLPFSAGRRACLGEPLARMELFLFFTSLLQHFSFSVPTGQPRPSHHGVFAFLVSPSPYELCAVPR
Interleukin-1 receptor-associated kinase 1, sequence (P51617 whole entry): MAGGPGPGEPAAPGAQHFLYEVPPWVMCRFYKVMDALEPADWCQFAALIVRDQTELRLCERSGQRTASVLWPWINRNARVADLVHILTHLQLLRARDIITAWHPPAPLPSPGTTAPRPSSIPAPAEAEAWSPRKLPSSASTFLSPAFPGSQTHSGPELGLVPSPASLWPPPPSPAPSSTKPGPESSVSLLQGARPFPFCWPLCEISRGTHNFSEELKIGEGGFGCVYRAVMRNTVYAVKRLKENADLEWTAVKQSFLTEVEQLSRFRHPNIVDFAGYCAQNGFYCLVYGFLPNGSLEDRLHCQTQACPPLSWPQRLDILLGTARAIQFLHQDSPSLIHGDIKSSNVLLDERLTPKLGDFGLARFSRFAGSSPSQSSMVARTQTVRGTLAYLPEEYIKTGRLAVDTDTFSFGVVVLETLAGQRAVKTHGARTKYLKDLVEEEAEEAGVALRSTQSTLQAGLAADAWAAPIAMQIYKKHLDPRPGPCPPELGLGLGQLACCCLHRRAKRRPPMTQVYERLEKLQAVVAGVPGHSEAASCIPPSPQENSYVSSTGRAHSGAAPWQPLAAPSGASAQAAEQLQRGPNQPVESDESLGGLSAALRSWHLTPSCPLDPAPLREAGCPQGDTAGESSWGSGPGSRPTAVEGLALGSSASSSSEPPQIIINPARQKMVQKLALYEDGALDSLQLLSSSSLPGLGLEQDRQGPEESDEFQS
Cytochrome P450 3A4, sequence (P08684 whole entry): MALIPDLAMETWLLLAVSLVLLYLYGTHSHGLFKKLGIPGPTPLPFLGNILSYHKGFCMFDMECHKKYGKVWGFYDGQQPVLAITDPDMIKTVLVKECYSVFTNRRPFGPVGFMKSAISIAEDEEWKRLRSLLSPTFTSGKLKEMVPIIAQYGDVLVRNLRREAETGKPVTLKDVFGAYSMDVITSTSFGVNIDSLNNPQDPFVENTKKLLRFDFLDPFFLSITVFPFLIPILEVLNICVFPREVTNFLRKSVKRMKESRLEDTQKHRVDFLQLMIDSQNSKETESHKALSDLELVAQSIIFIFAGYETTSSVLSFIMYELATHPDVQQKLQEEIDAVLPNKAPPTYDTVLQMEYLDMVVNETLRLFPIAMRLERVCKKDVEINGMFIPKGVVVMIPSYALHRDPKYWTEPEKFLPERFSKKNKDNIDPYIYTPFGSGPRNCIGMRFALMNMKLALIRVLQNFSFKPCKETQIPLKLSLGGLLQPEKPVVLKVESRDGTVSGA
T2 sequence (P10635 whole entry): as the sequence (P10635 whole entry) above

IC50 [1] [nM] | SMILES | further results
3 | Clc1ccc2ncn(-c3cccc(NC4CCNCC4)n3)c2c1 | 
10 | Cc1ccc2ncn(-c3cccc(NC4CCNCC4)n3)c2c1 | 
545 | c1cc(NC2CCNC2)nc(-c2cnc3ccccn23)c1 (racemic) | 
5 | NC(=O)c1ccc2ncc(-c3cccc(NC4CCNCC4)n3)n2c1 | 
63 | c1cc(NC2CCNCC2)nc(-c2cnc3ccc(-c4ccc[nH]4)cn23)c1 | 
8100 | CN(C)CCCNc1cccc(-c2cnc3ccccn23)n1 | 
497 | Cn1cnc(CNc2cccc(-c3cnc4ccccn34)n2)c1 | 
263 | O=C(c1ccc2ncc(-c3cccc(NC4CCNCC4)n3)n2c1)N1CCOCC1 | 
 | N#Cc1ccc(Nc2cccc(-c3cnc4ccccn34)n2)cc1 | inhibition [5]: 12%
2 | c1cc(NC2CCNCC2)nc(-c2cnc3ccc(-c4cc[nH]n4)cn23)c1 | 
8 | COc1ccc(-c2ccc3ncc(-c4cccc(NC5CCNCC5)n4)n3c2)cn1 | 
1080 | Cc1ccc2c(c1)ncn2-c1cccc(NC2CCNCC2)n1 | 
39 | c1cc(NC2CNC2)nc(-c2cnc3ccccn23)c1 | 
208 | COc1ccc2c(c1)ncn2-c1cccc(NC2CCNCC2)n1 | 
 | Clc1ccc2ncc(-c3cccc(NC4CCCNC4)n3)n2c1 (racemic) | Inhibition (Cytochrome P450 2D6): 1.8%; Inhibition (Cytochrome P450 3A4): 8.6%; microsomal CLint at 0.5 µM [3]: 29.5 µL/min/mg; Activity (PBMC): 65 nM; microsomal CLint at 0.5 µM [6]: 78.1 µL/min/mg; IC50 [4]: 175000 nM
49 | CN(C)C(=O)c1ccc2ncc(-c3cccc(NC4CCNCC4)n3)n2c1 | 
433 | N#Cc1ccccc1Nc1cccc(-c2cnc3ccccn23)n1 | 

IC50 [1] [nM] | SMILES | further results
7 | Cn1cc(-c2ccc3ncc(-c4cccc(NC5CCNCC5)n4)n3c2)cn1 | 
1880 | NC1CCN(c2cccc(-c3cnc4ccccn34)n2)CC1 | 
3030 | c1cc(NCC2CCNCC2)nc(-c2cnc3ccccn23)c1 | 
7 | COc1ccc2ncc(-c3cccc(NC4CNC4)n3)n2c1 | 
1130 | Cn1nccc1Nc1cccc(-c2cnc3ccccn23)n1 | 
535 | NC1CCCN(c2cccc(-c3cnc4ccccn34)n2)C1 (racemic) | 
15 | COc1ccc2ncn(-c3cccc(NC4CCNCC4)n3)c2c1 | 
1160 | c1ccc(Nc2cccc(-c3cnc4ccccn34)n2)cc1 | 
313 | c1cc(NCC2CCCN2)nc(-c2cnc3ccccn23)c1 (racemic) | 
181 | COc1cc2ncn(-c3cccc(NC4CCNCC4)n3)c2cc1OC | 
487 | c1cc(-c2cnc3ccccn23)nc(N2CCCNCC2)c1 | 
1300 | NCCCNc1cccc(-c2cnc3ccccn23)n1 | 
914 | CN1[C@@H]2CC[C@H]1CC(Nc1cccc(-c3cnc4ccccn34)n1)C2 (stereo partly drawn) | 
95 | N#Cc1ccc2ncc(-c3cccc(N[C@@H]4CCCNC4)n3)n2c1 | 
166 | Clc1cc2ncn(-c3cccc(NC4CCNCC4)n3)c2cc1Cl | 
112 | Clc1ccc2c(c1)ncn2-c1cccc(NC2CCNCC2)n1 | 
19 | c1cc(N[C@H]2CCCNC2)nc(-c2cnc3ccccn23)c1 | 

SMILES | IC50 [1] [nM] | further results
c1cc(-c2cnc3ccccn23)nc(N2C[C@H]3C[C@@H]2CN3)c1 | 126 | 
Clc1ccc2ncc(-c3cccc(NC4CNC4)n3)n2c1 | 6 | inhibition at 10 µM (CYP2D6 [2]): 21%; Inhibition (Cytochrome P450 3A4): 11%; microsomal CLint at 0.5 µM [3]: 13 µL/min/mg; Activity (PBMC): 54 nM; IC50 [4]: 195000 nM
c1cc(NC2C[C@H]3CC[C@@H](C2)N3)nc(-c2cnc3ccccn23)c1 (stereo partly drawn) | 225 | 
Clc1ccc2ncc(-c3cccc(NC4CCNC4)n3)n2c1 (racemic) | 1 | Inhibition (Cytochrome P450 2D6): 15%; Inhibition (Cytochrome P450 3A4): 12%; microsomal CLint at 0.5 µM [3]: 19.2 µL/min/mg; Activity (PBMC): 16 nM; microsomal CLint at 0.5 µM [6]: 49.3 µL/min/mg; IC50 [4]: 23000 nM
N#Cc1ccc2ncc(-c3cccc(NC4CCNCC4)n3)n2c1 | 4 | Inhibition (Cytochrome P450 2D6): 42%; Inhibition (Cytochrome P450 3A4): 22%; microsomal CLint at 0.5 µM [3]: 8.3 µL/min/mg; Activity (PBMC): 200 nM; microsomal CLint at 0.5 µM [6]: 39.9 µL/min/mg; IC50 [4]: 96000 nM
COc1ccc2ncc(-c3cccc(NC4CCNCC4)n3)n2c1 | 6 | Inhibition (Cytochrome P450 3A4): 31%; microsomal CLint at 0.5 µM [3]: 19.5 µL/min/mg; Activity (PBMC): 220 nM; microsomal CLint at 0.5 µM [6]: 5.3 µL/min/mg; IC50 [4]: 293000 nM; inhibition at 50 µM (CYP2D6 [7]): 41%
